Target: T1, AsPC-1 HiBiT-KRASG12D (Homo sapiens, UniProt P01116, G12D)
T1 construct: insert the HiBiT tag onto the N-terminus of one or more of the endogenous KRAS alleles; endogenous in cells; host or cells: AsPC-1 (ATCC CRL-1682), CRISPR-Cas9 knock-in clone, one tagged allele
Assay: HiBiT degradation assay (G12D), AsPC-1 HiBiT-KRASG12D cells
Format: cell-based
Settings: 24 hours treatment; for Dmax: ASPC1, AsPC-1 HiBiT-KRASG12D cells; for DC50: HiBiT luminescence
Outline: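 HiBiT-KRAS abundance was read as Nano-Glo HiBiT lytic luminescence (45 min, room temperature) after a PBS wash. Before that, a 4 h alamar blue fluorescence read, normalized to DMSO, monitored viability. Treatment lasted 24 hours at 37 °C, in triplicate, using AsPC-1 cells with endogenous N-terminally HiBiT-tagged KRAS G12D.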

T1 sequence (P01116 1-188 isoform P01116-2 G12D): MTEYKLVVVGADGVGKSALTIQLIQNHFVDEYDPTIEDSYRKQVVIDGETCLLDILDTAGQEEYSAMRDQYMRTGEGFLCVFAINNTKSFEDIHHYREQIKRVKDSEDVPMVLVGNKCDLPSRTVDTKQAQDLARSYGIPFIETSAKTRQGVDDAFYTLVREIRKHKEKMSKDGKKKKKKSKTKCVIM

SMILES | Dmax (maximum degradation observed) [%] | DC50 (AsPC-1 HiBiT-KRASG12D cells) [nM] | AsPC-1 HiBiT-KRASG12D DMax (AsPC-1 HiBiT-KRASG12D cells, maximum degradation observed)
CCc1cccc2cc(O)cc(-c3ncc4c(N5CC6CCC(C5)N6)nc(OC[C@]56CCCN5[C@H](COC(=O)N5C[C@H](C)N(c7cc([C@@H](C(=O)N8C[C@H](O)C[C@H]8C(=O)N[C@@H](C)c8ccc(-c9scnc9C)cc8)C(C)C)on7)C[C@H]5C)CC6)nc4c3F)c12 [Compound 302, [(3S,8R)-8-[[4-(3,8-diazabicyclo[3.2.1]octan-3-yl)-7-(8-ethyl-3-hydroxy-1-naphthyl)-8-fluoro-pyrido[4,3-d]pyrimidin-2-yl]oxymethyl]-1,2,3,5,6,7-hexahydropyrrolizin-3-yl]methyl (2R,5S)-4-[5-[(1S)-1-[(2S,4R)-4-hydroxy-2-[[(1S)-1-[4-(4-methylthiazol-5-yl)phenyl]ethyl]carbamoyl]pyrrolidine-1-carbonyl]-2-methyl-propyl]isoxazol-3-yl]-2,5-dimethyl-piperazine-1-carboxylate] | 20 to 60 | 1000 to 3000 | 
CCc1cccc2cccc(-c3ncc4c(N5CC6CCC(C5)N6)nc(OC[C@]56CCCN5[C@H](COC(=O)N5CCN(c7cc([C@H](C(=O)N8C[C@H](O)C[C@H]8C(=O)N[C@@H](C)c8ccc(-c9scnc9C)cc8)C(C)C)on7)CC5)CC6)nc4c3F)c12 [Compound 57] | 60 to 80 | < 600 | 
C#Cc1c(F)ccc2cc(O)cc(-c3ncc4c(N5CC6CCC(C5)N6)nc(OCCN5CCC(CCOc6cc([C@@H](C(=O)N7C[C@H](O)C[C@H]7C(=O)N[C@@H](C)c7ccc(-c8scnc8C)cc7)C(C)C)on6)CC5)nc4c3F)c12 [Compound 174, (2S,4R)-1-[(2S)-2-{3-[2-(1-{2-[(4-{3,8-diazabicyclo[3.2.1]octan-3-yl}-7-(8-ethynyl-7-fluoro-3-hydroxynaphthalen-1-yl)-8-fluoropyrido[4,3-d]pyrimidin-2-yl)oxy]ethyl}piperidin-4-yl)ethoxy]-1,2-oxazol-5-yl}-3-methylbutanoyl]-4-hydroxy-N-[(1S)-1-[4-(4-methyl-1,3-thiazol-5-yl)phenyl]ethyl] pyrrolidine-2-carboxamide] | 80 to 100 | < 600 | 
CCc1cccc2cc(O)cc(-c3ncc4c(N5CC6CCC(C5)N6)nc(OCCN5CC[C@@H]6[C@@H](CCN6c6cc([C@H](C(=O)N7C[C@H](O)C[C@H]7C(=O)N[C@@H](C)c7ccc(-c8scnc8C)cc7)C(C)C)on6)C5)nc4c3F)c12 (relative stereo) [Compound 74, (2S,4R)-1-[(2R*)-2-{3-[(3aR**,7aR***)-5-{2-[(4-{3,8-diazabicyclo[3.2.1]octan-3-yl}-7-(8-ethyl-3-hydroxynaphthalen-1-yl)-8-fluoropyrido[4,3-d]pyrimidin-2-yl)oxy]ethyl}-octahydro-1H-pyrrolo[3,2-c]pyridin-1-yl]-1,2-oxazol-5-yl}-3-methylbutanoyl]-4-hydroxy-N-[(1S)-1-[4-(4-methyl-1,3-thiazol-5-yl)phenyl]ethyl]pyrrolidine-2-carboxamide] | 80 to 100 | < 600 | 
CCc1cccc2cc(O)cc(-c3ncc4c(N5CC6CCC(C5)N6)nc(OCCN5C[C@@H]6CN(c7cc(C(C(=O)N8C[C@H](O)C[C@H]8C(=O)N[C@@H](C)c8ccc(-c9scnc9C)cc8)C(C)C)on7)C[C@@H]6C5)nc4c3F)c12 (relative stereo) [Compound 80, (2S,4R)-1-[(2R*)-2-{3-[(3aR,6aS)-5-{2-[(4-{3,8-diazabicyclo[3.2.1]octan-3-yl}-7-(8-ethyl-3-hydroxynaphthalen-1-yl)-8-fluoropyrido[4,3-d]pyrimidin-2-yl)oxy]ethyl}-octahydropyrrolo[3,4-c]pyrrol-2-yl]-1,2-oxazol-5-yl}-3-methylbutanoyl]-4-hydroxy-N-[(1S)-1-[4-(4-methyl-1,3-thiazol-5-yl)phenyl]ethyl]pyrrolidine-2-carboxamide] | 80 to 100 | < 600 | 
CCc1cccc2cc(O)cc(-c3ncc4c(N5CC6CCC(C5)N6)nc(OCCN5CCC(CC6CCN(c7cc(C(C(=O)N8C[C@H](O)C[C@H]8C(=O)N[C@@H](C)c8ccc(-c9scnc9C)cc8)C(C)C)on7)CC6)CC5)nc4c3F)c12 (single isomer, unassigned) [Compound 321] |  | 600 to 1000 | C (20% <C ≤ 60%)
CCc1cccc2cc(O)cc(-c3ncc4c(N5CC6CCC(C5)N6)nc(OCCN5CCC(F)(CN6CCN(c7cc([C@@H](C(=O)N8C[C@H](O)C[C@H]8C(=O)N[C@@H](C)c8ccc(-c9scnc9C)cc8)C(C)C)on7)[C@@H](C)C6)CC5)nc4c3F)c12 [Compound 203, (2S,4R)-1-[(2S)-2-{3-[(2S)-4-[(1-{2-[(4-{3,8-diazabicyclo[3.2.1]octan-3-yl}-7-(8-ethyl-3-hydroxynaphthalen-1-yl)-8-fluoropyrido[4,3-d]pyrimidin-2-yl)oxy]ethyl}-4-fluoropiperidin-4-yl)methyl]-2-methylpiperazin-1-yl]-1,2-oxazol-5-yl}-3-methylbutanoyl]-4-hydroxy-N-[(1S)-1-[4-(4-methyl-1,3-thiazol-5-yl)phenyl]ethyl]pyrrolidine-2-carboxamide] | 20 to 60 | 1000 to 3000 | 
C#Cc1c(F)ccc2cc(O)cc(-c3ncc4c(N5CC6CCC(C5)N6)nc(OCCN5CCC(C6CCN(c7cc([C@H](C(=O)N8C[C@H](O)C[C@H]8C(=O)N[C@@H](C)c8ccc(-c9scnc9C)cc8)C(C)C)on7)CC6)CC5)nc4c3F)c12 [Compound 176, (2S,4R)-1-[(2R)-2-[3-(1′-{2-[(4-{3,8-diazabicyclo[3.2.1]octan-3-yl}-7-(8-ethynyl-7-fluoro-3-hydroxynaphthalen-1-yl)-8-fluoropyrido[4,3-d]pyrimidin-2-yl)oxy]ethyl}-[4,4′-bipiperidin]-1-yl)-1,2-oxazol-5-yl]-3-methylbutanoyl]-4-hydroxy-N-] | 80 to 100 | < 600 | 
CCc1cccc2cc(O)cc(-c3ncc4c(N5CCCCCC5)nc(OC[C@]56CCCN5[C@H](COC(=O)N5CCN(c7cc([C@H](C(=O)N8C[C@H](O)C[C@H]8C(=O)N[C@@H](C)c8ccc(-c9scnc9C)cc8)C(C)C)on7)CC5)CC6)nc4c3F)c12 (relative stereo) [Compound 278, [(3S,8R)-8-[[4-(azepan-1-yl)-7-(8-ethyl-3-hydroxy-1-naphthyl)-8-fluoro-pyrido[4,3-d]pyrimidin-2-yl]oxymethyl]-1,2,3,5,6,7-hexahydropyrrolizin-3-yl]methyl4-[5-[(1R)-1-[(2S,4R)-4-hydroxy-2-[[(1S)-1-[4-(4-methylthiazol-5-yl)phenyl]ethyl]carbamoyl]pyrrolidine-1-carbonyl]-2-methyl-propyl]isoxazol-3-yl]piperazine-1-carboxylate] | 80 to 100 | < 600 | 
CCc1cccc2cc(O)cc(-c3ncc4c(N5CC6CCC(C5)N6)nc(OCCN5CCC(C(C)(C)N6CCN(c7cc([C@@H](C(=O)N8C[C@H](O)C[C@H]8C(=O)N[C@@H](C)c8ccc(-c9scnc9C)cc8)C(C)C)on7)CC6)CC5)nc4c3F)c12 (single isomer, unassigned) [Compound 254, (2S,4R)-1-[(2R*)-2-(3-{4-[2-(1-{2-[(4-{3,8-diazabicyclo[3.2.1]octan-3-yl}-7-(8-ethyl-3-hydroxynaphthalen-1-yl)-8-fluoropyrido[4,3-d]pyrimidin-2-yl)oxy]ethyl}piperidin-4-yl)propan-2-yl]piperazin-1-yl}-1,2-oxazol-5-yl)-3-methylbutanoyl]-4-hydroxy-N-[(1S)-1-[4-(4-methyl-1,3-thiazol-5-yl)phenyl]ethyl] pyrrolidine-2-carboxamide] | 20 to 60 | 600 to 1000 | 
